≈ marks a conversion by molar mass, not a printed value.
How the values were obtained:
[1] = tested on: Mycobacterium tuberculosis; test: Antitubercular activity against Mycobacterium tuberculosis H37Rv assessed as […] inhibition after 7 days by broth microdilution assay; assay type: functional; conditions: 168 h
[2] = tested on: Vero; test: Cytotoxicity against African green monkey Vero cells assessed as cell growth inhibition after 48 hrs by neutral red assay; assay type: cell-based; conditions: Chlorocebus sabaeus
[3] = tested on: BT-549; test: Cytotoxicity against human BT549 cells assessed as cell growth inhibition after 48 hrs by neutral red assay; assay type: cell-based; conditions: BT-549, 48 h
[4] = tested on: Plasmodium falciparum; test: Antiplasmodial activity against Plasmodium falciparum D6 infected in human RBC assessed as parasite growth inhibition measured as LDH activity after 72 hrs by plate reader analysis; assay type: functional, organism-based
[5] = tested on: Plasmodium falciparum; test: Antiplasmodial activity against Plasmodium falciparum W2 infected in human RBC assessed as parasite growth inhibition measured as LDH activity after 72 hrs by plate reader analysis; assay type: functional, organism-based
[6] = Retention time of the compound by HPLC analysis; assay type: physicochemical
[7] = tested on: LLC-PK1; test: Cytotoxicity against pig LLC-PK1 cells assessed as cell growth inhibition after 48 hrs by neutral red assay; assay type: cell-based; conditions: Sus scrofa, LLC-PK1, 48 h
[8] = tested on: SK-MEL; test: Cytotoxicity against human SK-MEL cells assessed as cell growth inhibition after 48 hrs by neutral red assay; assay type: cell-based
[9] = tested on: KB; test: Cytotoxicity against human KB cells assessed as cell growth inhibition after 48 hrs by neutral red assay; assay type: cell-based
[10] = tested on: SK-OV-3; test: Cytotoxicity against human SKOV3 cells assessed as cell growth inhibition after 48 hrs by neutral red assay; assay type: cell-based; conditions: SK-OV-3, 48 h
[11] = Selectivity index, ratio of IC50 for African green monkey VERO cells to IC50 for Plasmodium falciparum D6
[12] = Selectivity index, ratio of IC50 for pig LLC-PK1 cells to IC50 for Plasmodium falciparum D6
[13] = Selectivity index, ratio of IC50 for African green monkey VERO cells to IC50 for Plasmodium falciparum W2
[14] = Selectivity index, ratio of IC50 for pig LLC-PK1 cells to IC50 for Plasmodium falciparum W2
[15] = Plasmodium falciparum, D6, 72 h, read-out: IC50
[16] = Plasmodium falciparum, D6, 72 h, read-out: pIC50 (converted)
[17] = Plasmodium falciparum, W2, 72 h, read-out: IC50
[18] = Plasmodium falciparum, W2, 72 h, read-out: pIC50 (converted)

Question: With `COCCn1cc(-c2ccnc(N)n2)c2cc(Br)ccc21` as the molecule, how does the MIC90 [1] read?
Answer: 92.2 µM (≈ 32 µg/mL)

Question: For `COc1cccc2c1C(=O)c1c(O)c3c(c(O)c1C2=O)C[C@@](O)(C(=O)CO)C[C@@H]3O[C@H]1C[C@H](N)[C@H](O)[C@H](C)O1` [DOXORUBICIN], which IC50 [2] is on record?
Answer: > 9 µM

Question: What about the IC50 [3] of the same molecule?
Answer: 1.6 µM

Question: For `Nc1nccc(-c2cn(S(=O)(=O)c3ccc(OC(F)(F)F)cc3)c3ccc(Br)cc23)n1`, which IC50 [4] is on record?
Answer: Not Active

Question: And the IC50 [5]?
Answer: Not Active

Question: What about the MIC90 [1] of the same molecule?
Answer: 62.5 µM (≈ 32.1 µg/mL)

Question: What about the Retention_time [6] of the same molecule?
Answer: 9.54 min

Question: Which IC50 [4] does the source give for `COc1ccc(Br)cc1S(=O)(=O)n1cc(-c2ccnc(N)n2)c2ccccc21` here?
Answer: Not Active

Question: And the IC50 [5]?
Answer: Not Active

Question: And the Retention_time [6]?
Answer: 8.38 min

Question: What does the source list for `N#Cc1ccc(S(=O)(=O)n2cc(-c3ccnc(N)n3)c3ccccc32)cc1`?
Answer: IC50 [4, 15]: 11 µM; IC50 [4, 16]: 11 µM; IC50 [5, 17]: 8.98 µM; IC50 [5, 18]: 8.97 µM; IC50 [2]: > 66 µM; IC50 [7]: > 66 µM; IC50 [8]: > 66 µM; IC50 [9]: > 66 µM; IC50 [3]: > 66 µM; IC50 [10]: > 66 µM; Ratio IC50 [11]: >6; Ratio IC50 [12]: >6; Ratio IC50 [13]: >7.4; Ratio IC50 [14]: >7.4; Retention_time [6]: 7.02 min

Question: For `Nc1nccc(-c2cn(S(=O)(=O)c3cc(C(F)(F)F)cc(C(F)(F)F)c3)c3ccccc23)n1`, which IC50 [4] is on record?
Answer: Not Active

Question: And the IC50 [5]?
Answer: Not Active

Question: What about the Retention_time [6] of the same molecule?
Answer: 7.87 min

Question: With `Nc1nccc(-c2cn(S(=O)(=O)c3ccc([N+](=O)[O-])cc3)c3ccccc23)n1` as the molecule, how does the Retention_time [6] read?
Answer: 7.43 min

Question: What does the source list for `Nc1nccc(-c2cn(S(=O)(=O)c3ccc(Cl)cc3Cl)c3ccccc23)n1`?
Answer: IC50 [4]: Not Active; IC50 [5]: Not Active; Retention_time [6]: 9.08 min

Question: For `Nc1nccc(-c2cn(S(=O)(=O)c3ccc(C(F)(F)F)cc3)c3ccccc23)n1`, which IC50 [4] is on record?
Answer: Not Active

Question: What about the IC50 [5] of the same molecule?
Answer: Not Active

Question: What about the Retention_time [6] of the same molecule?
Answer: 9.15 min

Question: Which MIC90 [1] does the source give for `Cc1noc(C)c1Cn1cc(-c2ccnc(N)n2)c2cc(Br)ccc21` here?
Answer: 80.6 µM (≈ 32.1 µg/mL)

Question: For `Nc1nccc(-c2cn(S(=O)(=O)c3ccc4c(c3)OCCO4)c3ccc(Br)cc23)n1`, which IC50 [4] is on record?
Answer: Not Active

Question: What about the IC50 [5] of the same molecule?
Answer: Not Active

Question: And the Retention_time [6]?
Answer: 8 min

Question: With `Nc1nccc(-c2cn(S(=O)(=O)c3ccc(F)cc3F)c3ccccc23)n1` as the molecule, how does the IC50 [4] read?
Answer: Not Active

Question: And the IC50 [5]?
Answer: Not Active

Question: And the Retention_time [6]?
Answer: 7.32 min

Question: With `Nc1nccc(-c2cn(S(=O)(=O)c3ccc4c(c3)OCCO4)c3ccccc23)n1` as the molecule, how does the IC50 [4] read?
Answer: Not Active

Question: What about the IC50 [5] of the same molecule?
Answer: Not Active

Question: What about the Retention_time [6] of the same molecule?
Answer: 8.02 min

Question: For `Cc1cc(C)c(S(=O)(=O)n2cc(-c3ccnc(N)n3)c3ccccc32)c(C)c1`, which IC50 [4] is on record?
Answer: Not Active

Question: What about the IC50 [5] of the same molecule?
Answer: Not Active

Question: And the Retention_time [6]?
Answer: 8.95 min

Question: For `O=C1NC(c2c[nH]c3ccc(Br)cc23)Nc2ccccc21` (stereo unspecified), which MIC90 [1] is on record?
Answer: 23.4 µM (≈ 8.01 µg/mL)

Question: Which results are given for `CC(C)(C)c1ccc(S(=O)(=O)n2cc(-c3ccnc(N)n3)c3ccccc32)cc1`?
Answer: IC50 [4]: Not Active; IC50 [5]: Not Active; Retention_time [6]: 9.09 min

Question: Which IC50 [4] does the source give for `COc1ccc(S(=O)(=O)n2cc(-c3ccnc(N)n3)c3cc(Br)ccc32)cc1` here?
Answer: Not Active

Question: What about the IC50 [5] of the same molecule?
Answer: Not Active

Question: And the Retention_time [6]?
Answer: 8.08 min

Question: What does the source list for `Nc1nccc(-c2cn(S(=O)(=O)c3cccc(C(F)(F)F)c3)c3ccccc23)n1`?
Answer: IC50 [4]: Not Active; IC50 [5]: Not Active; MIC90 [1]: 153 µM (≈ 64.1 µg/mL); Retention_time [6]: 8.34 min

Question: For `Cc1c(C)c(C)c(S(=O)(=O)n2cc(-c3ccnc(N)n3)c3cc(Br)ccc32)c(C)c1C`, which Retention_time [6] is on record?
Answer: 13.88 min

Question: With `Nc1nccc(-c2cn(Cc3ccc(Cl)s3)c3ccc(Br)cc23)n1` as the molecule, how does the MIC90 [1] read?
Answer: 76.6 µM (≈ 32.2 µg/mL)

Question: For `Cc1cc(C)c(S(=O)(=O)n2cc(-c3ccnc(N)n3)c3cc(Br)ccc32)c(C)c1`, which IC50 [4, 15] is on record?
Answer: 8.12 µM

Question: What about the IC50 [4, 16] of the same molecule?
Answer: 8.13 µM

Question: And the IC50 [5, 17]?
Answer: 8.36 µM

Question: And the IC50 [5, 18]?
Answer: 8.36 µM

Question: And the IC50 [2]?
Answer: > 53 µM

Question: What about the IC50 [7] of the same molecule?
Answer: > 53 µM

Question: And the IC50 [8]?
Answer: > 53 µM

Question: And the IC50 [9]?
Answer: > 53 µM

Question: And the IC50 [3]?
Answer: > 53 µM

Question: What about the IC50 [10] of the same molecule?
Answer: > 53 µM

Question: What about the “Ratio IC50” value [11] of the same molecule?
Answer: >6.5

Question: What about the “Ratio IC50” value [12] of the same molecule?
Answer: >6.5

Question: And the “Ratio IC50” value [13]?
Answer: >6.3

Question: What about the “Ratio IC50” value [14] of the same molecule?
Answer: >6.3

Question: And the Retention_time [6]?
Answer: 10.66 min
